A short description of experiment [1]: L-5-hydroxytryptophan (5-HTP) potentiation assay, antidepressant activity. In kind it is in vivo, male Wistar rats. The following applies: Rattus norvegicus, ip, read-out: 5-HTP Potentiation ED50. Here is the method: The compounds of this invention are also useful as antidepressants by virtue of their ability to elicit an antidepressant response in mammals. Antidepressant activity is determined by the L-5-hydroxytryptophan potentiation assay in rats described in Brit. J. Pharmacol., 20, pp. 106-120 (1963) and J. Med. Chem., 24, 74 (1980).
Groups of six male Wistar rats (150-200 grams each) are used in this assay. Pursuant to this procedure pargyline hydrochloride is prepared and administered four hours before testing by subcutaneous injection at 75 mg/kg in 1% saline and at dosage volume of 1.0 ml/kg. Thirty minutes before testing, drugs are prepared and dosed using distilled water and, if insoluble, a suitable surfactant is added. Control groups receive vehicle. Drugs are routinely administered intraperitoneally at a dosage volume of 10 ml/kg. L-5-hydroxytryptophan (5-HTP) is prepared at 1.0 mg/kg in distilled water and is administered intraperioneally in volumes proportional to 10 ml/kg. Drugs are administered in a randomized manner and 15 minutes post 5-HTP treatment, the animals are observed for 15 minutes.
Potentiation is expressed as normalized percent potentiation relative to vehicle control.

Experiment [2] in a line: phenyl-p-benzoquinone writhing assay (analgesic activity). It is filed as in vivo, male mice (Charles River, CD-1). The following applies: Mus musculus, sc, mice; for inhibition in vivo at 20 mg/kg: s.c., read-out: % Inhibition of writhing at a screening dose of 20 mg/kg, s.c. As for the experimental part: The compounds of this invention are useful as analgesic agents due to their ability to alleviate pain in mammals. The procedure employed to determine analgetic utility is a modification of the phenyl-p-benzoquinone writhing assay in mice, a standard assay for analgesia [Proc. Soc. Exptl. Bio. Med., 95, 729 (1957)]. Pursuant to the modified procedure phenyl-p-benzoquinone (Eastman, 12.5 mg) is dissolved in 5 ml of 95% ethanol and the solution is diluted to a total volume of 100 ml with distilled water. The solution is administered to the subject mice intraperitoneally at a dose of 10 ml per kg of body weight. A characteristic "writhe"an inward rotation of one or more feet with twisting and turning of the trunk, drawing in of the abdominal wall, lordosis and arching of the back, is produced.
A total of 28 male mice (Charles River, CD-1), weighing 18 to 30 grams, are employed for a time response. The subject animals receive food and water ad libitum. Test compounds are dissolved in distilled water, or suspended in distilled water containing one drop of a suitable surfactant, such as Tween-80.
Four groups of five animals (20 animals) are given the test compound subcutaneously (s.c.) or orally (p.o.) at 15, 30, 45 and 60 minutes prior to administration of the phenyl-p-quinone. A control group (2 animals per group) receive an equal volume of the vehicle. After the administration of the phenyl-p-quinone, the mice are place separately in one liter beakers, and after five minutes, are observed for ten minutes. The number of writhes for each animal is recorded. The following formula is used to compute the percent inhibition: [formula]
The time period with the greatest percent of inhibition is considered the peak time.
Background: In writhing tests, fewer writhes than in controls are read as antinociception.

The nature of experiment [3]: supramaximal electroshock (SES) assay, anticonvulsant activity. It is filed as in vivo, male mice (Charles River, CD-1). The conditions noted are these: Mus musculus, ip, mice. As for the experimental part: (§1) The compounds of this invention are also useful as anticonvulsants due to their anticonvulsant activity in mammals. Anticonvulsant activity is measured in male mice using the supramaximal electroshock (SES) assay described in Arch. Int. Pharmacodyn. 92, pp. 97-107, (1952) and the metrazol lethality assay (MTZ) described in J. Pharmacol. Exp. Ther., 81, 402 (1944).
Groups of male mice (Charles River, CD-1) weighing 18 to 30 g are employed in the SES assay. Test compounds are dissolved in distilled water, or if insoluble, suspended in water containing one drop of a surfactant, such as Tween-80. Test compounds are generally administered intraperitoneally at a dose of 10 ml of solution, or suspension, per kg of animal body weight. The output terminals of an A.C. shocker, which delivers 206 volts rms for 300 msec, are placed across the animals' eyes, an electrode paste coating assuring contact of the terminals with the eyes. The test compound is administered and thereafter the subject animals are shocked.
Protection is expressed as normalized percent inhibition relative to vehicle control. [formula] A time response is carried out using 6 animals per group. Animals are tested at 30, 60 and 120 minutes post drug. Additional time periods are tested if indicated by previous tests. A dose range determination is generally reserved for those compounds which inhibit convulsions by greater than about 45-55% at the screening dose employed at the time the test was performed. When the peak activity time has been determined, a dose response is initiated, using 10 animals per group at that time period.
The anticonvulsant activity of several of the compounds of this invention as per the SES and MTZ assay procedures is provided in Table 2.
For orientation: Protection in the maximal electroshock model is a classic sign of anticonvulsant action.

A short description of experiment [4]: Metrazol lethality assay (MTZ), anticonvulsant activity. In kind it is in vivo, male mice (Charles River, CD-1). The following applies: Mus musculus, po, mice, protection against Metrazol lethality. Here is the method: as §1
Groups of male mice (Charles River, CD-1), weighing 18 to 30 grams are employed in the Metrazol lethality assay. Test compounds are dissolved in distilled water or if insoluble, suspended in water, to which a surfactant, such as Tween-80 is added. The test compounds are administered orally, the administered dose being dissolved or suspended in 10 ml of solution or suspension per kg of animal body weight. Control animals (2 mice/group) receive water or water and Tween-80, i.e., the vehicle for administration of the test compound. Metrazol (pentylenetetrazol) is dissolved in water (concentration 225 mg of Metrazol/10 ml of solution), and the solution is administered subcutaneously to groups of five animals each at one or more time intervals of 15, 30, 60, 90, or 120 minutes after administration of the test compound. The number of animal alive 15 minutes after treatment with Metrazol is determined and recorded. The following formula is employed to calculate the percent protection against Metrazol lethality. [formula] […]

Experiment [5] can be described thus: antihypertensive activity, indirect tail cuff method (SHR). The conditions noted are these: treated three days, drop measured on third day, decrease in mean arterial blood pressure. It is filed as in vivo, spontaneous hypertensive rat. Here is the method:
The compounds of this invention are also useful as antihypertensive agents due to their ability to depress blood pressure in mammals. Antihypertensive activity is measured in the spontaneous hypertensive rat by the indirect tail cuff method described in "Methods in Pharmacology", A. Schwartz, Ed., Vol. I, Appleton-Century Crofts, New York, N.Y., 1971, p. 135. In this procedure a group of five animals is treated orally for three days with the test compound in relation to a control group of the same number. The drop in blood pressure is measured on the third day following administration. The antihypertensive activities of representative compounds, expressed as a decrease in mean arterial blood pressure (in mm Hg), are given in Table 3 along with the activity of a standard compound.

Counter-ions that a name gives are not always drawn.

As usually defined, the ED50 is the dose that gives a 50% effect, or the effect in half of the subjects. Turning to `CN(C)CCC=C1c2ccccc2CCc2ccccc21` [amitriptyline, reference compound], in experiment [1] (rats), the 50% effective dose (ED50) turned out to be 7.1 mg/kg.
Consider `NC(=O)N1[C@@H]2CC[C@H]1C[C@@H](Oc1c(F)c(F)c(F)c(F)c1F)C2` [(endo)-8-aminocarbonyl-3-(2,3,4,5,6-pentafluorophenoxy)-8-azabicyclo[3.2.1]octane], for which the inhibition in vivo at 20 mg/kg in experiment [2] is 38%. Moreover, the ED50 turned out to be 25.2 mg/kg in experiment [3] and 12.7 mg/kg in experiment [4].
In the case of `Cc1[nH]c2ccccc2c1CCCN1[C@@H]2CC[C@H]1C[C@H](Oc1c(F)c(F)c(F)c(F)c1F)C2` [(EXO)-3-(2,3,4,5,6-PENTAFLUOROPHENOXY)-8-[3-(2-METHYLINDOL-3-YL)PROPYL]-8-AZABICYCLO[3.2.1]OCTANE HYDROCHLORIDE], the inhibition in vivo at 20 mg/kg in experiment [2] is 42%.
Still for that read-out and setting: under `NC(=O)N1[C@@H]2CC[C@H]1C[C@H](Oc1c(F)c(F)c(F)c(F)c1F)C2` [(exo)-8-(aminocarbonyl)-3-(2,3,4,5,6-pentafluorophenoxy)-8-azabicyclo[3.2.1]octane] stands 32%.
Regarding `CC(=O)N1[C@@H]2CC[C@H]1C[C@@H](Oc1c(F)c(F)c(F)c(F)c1F)C2` [endo-8-acetyl-3-(2,3,4,5,6-pentafluorophenoxy)-8-azabicyclo[3.2.1]octane], in experiment [3], the median effective dose (ED50) worked out at 35.1 mg/kg.
`Fc1c(F)c(F)c(O[C@H]2C[C@H]3CC[C@@H](C2)N3)c(F)c1F` [(endo)-3-(2,3,4,5,6-pentafluorophenoxy)-8-azabicyclo[3.2.1]octane hydrochloride]: the ED50 in experiment [1] worked out at 15.6 mg/kg.
Compound `CCC1(c2ccccc2)C(=O)NC(=O)NC1=O` [phenobarbital, reference compound] registered an ED50 in experiment [3] of 8.4 mg/kg.
Turning to `CC(=O)Oc1ccccc1C(=O)O` [Asprin, reference compound], in experiment [2] (column head s.c., read-out: ED50 (calculated dosage at which a 50% inhibition of writhing is achieved)), the ED50 was 32.8 mg/kg.
Take `Fc1ccc2c(CCCN3[C@@H]4CC[C@H]3C[C@@H](Oc3c(F)c(F)c(F)c(F)c3F)C4)noc2c1` [(ENDO)-8-[3-(6-FLUORO-1,2-BENZISOXAZOL-3-YL)PROPYL]-3-(2,3,4,5,6-PENTAFLUOROPHENOXY)-8-AZABICYCLO[3.2.1OCTANE HYDROCHLORIDE]: the inhibition in vivo at 20 mg/kg in experiment [2] worked out at 45%.
`CN1[C@@H]2CC[C@H]1C[C@@H](Oc1c(F)c(F)c(F)c(F)c1F)C2` [(endo)-3-(2,3,4,5,6-pentafluorophenoxy)-8-methyl-8-azabicyclo[3.2.1]octane]: the median effective dose (ED50) in experiment [1] was determined as 16.2 mg/kg.
Still for that read-out and setting: under `Fc1c(F)c(F)c(O[C@@H]2C[C@H]3CC[C@@H](C2)N3)c(F)c1F` [(exo)-3-(2,3,4,5,6-pentafluorophenoxy)-8-azabicyclo[3.2.1]octane] stands 8.4 mg/kg.
On to `CN(C)C(=O)N1[C@@H]2CC[C@H]1C[C@H](Oc1c(F)c(F)c(F)c(F)c1F)C2` [(exo)-3-(2,3,4,5,6-pentafluorophenoxy)-8-[(N,N-dimethylamino)carbonyl]-8-azabicyclo[3.2.1]octane], for which the inhibition in vivo at 20 mg/kg in experiment [2] was 39%.
Regarding `CN1[C@@H]2CC[C@H]1C[C@](Oc1c(F)c(F)c(F)c(F)c1F)(c1ccccc1)C2` [(endo)-3-(2,3,4,5,6-pentafluorophenoxy)-8-methyl-3-phenyl-8-azabicyclo[3.2.1]octane hydrochloride], the inhibition in vivo at 20 mg/kg in experiment [2] stood at 42%.
On to `CP(C)(=O)CN1[C@@H]2CC[C@H]1C[C@@H](Oc1c(F)c(F)c(F)c(F)c1F)C2` [(endo)-3-(2,3,4,5,6-pentafluorophenoxy)-8-[(dimethylphosphinyl)methyl]-8-azabicyclo[3.2.1]octane], for which the median effective dose (ED50) in experiment [1] was determined as 10.8 mg/kg.
`N=C(N)NCCN1CCCCCCC1` [guanethidine, reference compound]: the “mm dec. in BP at 50 mg/kg p.o.” value in experiment [5] is on record as 20 mm.
The compound `CC(=O)N1[C@@H]2CC[C@H]1C[C@H](Oc1c(F)c(F)c(F)c(F)c1F)C2` [(exo)-8-acetyl-3-(2,3,4,5,6-pentafluorophenoxy)-8-azabicyclo[3.2.1]octane] registered a median effective dose (ED50) in experiment [4] of 41.9 mg/kg.
On to `CN1[C@@H]2CC[C@H]1C[C@@H](Oc1c(F)c(F)c(F)c(F)c1F)C2` [endo-3-(2,3,4,5,6-pentafluorophenoxy)-8-methyl-8-azabicyclo[3.2.1]octane oxalate], for which the inhibition in vivo at 20 mg/kg in experiment [2] was found to be 49%.
Still for that read-out and setting: under `Cc1[nH]c2ccccc2c1CCCN1[C@@H]2CC[C@H]1C[C@@H](Oc1c(F)c(F)c(F)c(F)c1F)C2` [(ENDO)-3-(2,3,4,5,6-PENTAFLUOROPHENOXY)-8-[3-(2-METHYLINDOL-3-YL)PROPYL]-8- AZABICYCLO[3.2.1]OCTANEHYDROCHLORIDE] stands 39%.
Same read-out and setting: the result for `COc1ccccc1N1CCN(CCCN2[C@@H]3CC[C@H]2C[C@@H](Oc2c(F)c(F)c(F)c(F)c2F)C3)CC1` [(endo)-3-(2,3,4,5,6-pentafluorophenoxy)-8-[3-[4-(2-methoxyphenyl)piperazin-1-yl]propyl]-8-azabicyclo[3.2.1]octane] reads 55%.
`COc1cc2onc(CCCN3[C@@H]4CC[C@H]3C[C@@H](Oc3c(F)c(F)c(F)c(F)c3F)C4)c2cc1OC` [(ENDO)-3-(2,3,4,5,6-PENTAFLUOROPHENOXY)-8-[(5,6-DIMETHOXY-1,2-BENZISOXAZOL- 3-YL)PROPYL]-8-AZABICYCLO[3.2.1]OCTANEHYDROCHLORIDE]: in experiment [1], the ED50 amounted to 21.1 mg/kg. Besides, in experiment [2], the inhibition in vivo at 20 mg/kg amounted to 37%.
In the case of `CN1[C@@H]2CC[C@H]1C[C@H](Oc1c(F)c(F)c(F)c(F)c1F)C2` [exo-3-(2,3,4,5,6-pentafluorophenoxy)-8-methyl-8-azabicyclo[3.2.1]octane hydrochloride], in experiment [1], the ED50 worked out at 13.4 mg/kg. The inhibition in vivo at 20 mg/kg in experiment [2] is 43%.
